Read-outs that look alike come from different tables or passages of the source.
Target: T1, ER (Homo sapiens, UniProt P03372)
T1 construct: host or cells: T47D and MCF7 human breast cancer cells
T1 sequence (P03372 1-595): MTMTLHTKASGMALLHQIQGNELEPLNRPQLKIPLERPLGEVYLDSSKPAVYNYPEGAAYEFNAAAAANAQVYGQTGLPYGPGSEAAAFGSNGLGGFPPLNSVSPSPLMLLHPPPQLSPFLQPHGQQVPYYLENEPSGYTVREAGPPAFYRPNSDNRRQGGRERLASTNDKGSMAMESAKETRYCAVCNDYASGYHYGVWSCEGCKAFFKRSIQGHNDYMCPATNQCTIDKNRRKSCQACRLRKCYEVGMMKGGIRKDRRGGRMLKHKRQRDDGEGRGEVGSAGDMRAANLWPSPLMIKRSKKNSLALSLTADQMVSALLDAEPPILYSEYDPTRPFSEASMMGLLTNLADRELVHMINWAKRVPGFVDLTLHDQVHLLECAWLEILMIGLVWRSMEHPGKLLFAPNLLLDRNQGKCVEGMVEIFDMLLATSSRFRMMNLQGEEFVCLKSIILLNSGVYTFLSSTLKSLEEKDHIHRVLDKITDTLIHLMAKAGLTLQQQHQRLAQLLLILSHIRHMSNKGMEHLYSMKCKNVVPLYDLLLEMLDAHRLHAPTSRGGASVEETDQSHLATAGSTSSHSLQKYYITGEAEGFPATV
Assay: ER degradation activity, in-cell western blot analysis in T47D cells
Assay type: cell-based
Summary of the method: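 In-cell western, T47D; compounds 16 h, 0.5% DMSO final; anti-rabbit-680/anti-mouse-800 secondaries, 1 h RT, dark; read on CLX imager. ER % vs untreated/DMSO wells (100%).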

[1] = compounds 16 hours, Table A does not say whether T47D or MCF7, read-out: Potency (DC50)

DC50 (16 hours, Table A does not say which cell line (T47D or MCF7), read-out: Potency (DC50)) [µM]	DC50 [1] [µM]	SMILES
> 0.1		CN(c1ccc([C@H]2c3ccc(O)cc3CC[C@H]2c2ccccc2)cc1)C1CN([C@H]2CC[C@H](C(=O)N3Cc4cc5c(cc4C3)C(=O)N(C3CCC(=O)NC3=O)C5=O)CC2)C1 (stereo partly drawn) [E 395, 2-(2,6-dioxopiperidin-3-yl)-6-((1R,4s)-4-(3-((4-((1S,2R)-6-hydroxy-2-phenyl-1,2,3,4-tetrahydronaphthalen-1-yl)phenyl)(methyl)amino)azetidin-1-yl)cyclohexane-1-carbonyl)-6,7-dihydropyrrolo[3,4-f]isoindole-1,3(2H,5H)-dione]
	> 0.1	COc1cc([C@H]2CC[C@@H](C(=O)N3CCC(N4Cc5cc6c(cc5C4)C(=O)N(C4CCC(=O)NC4=O)C6=O)CC3)CC2)ncc1[C@@H]1c2[nH]c3ccccc3c2C[C@@H](C)N1CC(F)F (stereo partly drawn) [E 396, 6-(1-((1S,4s)-4-(5-((1R,3R)-2-(2,2-difluoroethyl)-3-methyl-2,3,4,9-tetrahydro-1H-pyrido[3,4-b]indol-1-yl)-4-methoxypyridin-2-yl)cyclohexane-1-carbonyl)piperidin-4-yl)-2-(2,6-dioxopiperidin-3-yl)-6,7-dihydropyrrolo[3,4-f]isoindole-1,3(2H,5H)-dione]
	> 0.1	COc1cc([C@H]2CC[C@H](C(=O)N3CCC(N4Cc5cc6c(cc5C4)C(=O)N(C4CCC(=O)NC4=O)C6=O)CC3)CC2)ncc1[C@@H]1c2[nH]c3ccccc3c2C[C@@H](C)N1CC(F)F (stereo partly drawn) [E 397, 6-(1-((1R,4r)-4-(5-((1R,3R)-2-(2,2-difluoroethyl)-3-methyl-2,3,4,9-tetrahydro-1H-pyrido[3,4-b]indol-1-yl)-4-methoxypyridin-2-yl)cyclohexane-1-carbonyl)piperidin-4-yl)-2-(2,6-dioxopiperidin-3-yl)-6,7-dihydropyrrolo[3,4-f]isoindole-1,3(2H,5H)-dione]
	> 0.1	CN(c1ccc([C@@H]2c3ccc(O)cc3CC[C@@H]2c2ccccc2)cc1)C1CN(C[C@H]2CC[C@H](C(=O)N3Cc4cc5c(cc4C3)C(=O)N(C3CCC(=O)NC3=O)C5=O)CC2)C1 (stereo partly drawn) [E 398, 2-(2,6-dioxopiperidin-3-yl)-6-((1R,4r)-4-((3-((4-((1R,2S)-6-hydroxy-2-phenyl-1,2,3,4-tetrahydronaphthalen-1-yl)phenyl)(methyl)amino)azetidin-1-yl)methyl)cyclohexane-1-carbonyl)-6,7-dihydropyrrolo[3,4-f]isoindole-1,3(2H,5H)-dione]
	> 0.1	C[C@@H]1Cc2c([nH]c3ccccc23)[C@@H](c2ncc(C3=CCC(C(=O)N4CCC(N5Cc6cc7c(cc6C5)C(=O)N(C5CCC(=O)NC5=O)C7=O)CC4)CC3)cc2F)N1CC(F)F (stereo partly drawn) [E 399, 6-(1-(4-(6-((1S,3R)-2-(2,2-difluoroethyl)-3-methyl-2,3,4,9-tetrahydro-1H-pyrido[3,4-b]indol-1-yl)-5-fluoropyridin-3-yl)cyclohex-3-ene-1-carbonyl)piperidin-4-yl)-2-(2,6-dioxopiperidin-3-yl)-6,7-dihydropyrrolo[3,4-f]isoindole-1,3(2H,5H)-dione]
	> 0.1	C[C@@H]1Cc2c([nH]c3ccccc23)[C@@H](c2c(F)cc(C3CCC(C(=O)N4CCC(N5Cc6cc7c(cc6C5)C(=O)N(C5CCC(=O)NC5=O)C7=O)CC4)CC3)cc2F)N1CC(F)(F)CO (stereo partly drawn) [E 400, 6-(1-(4-(4-((1R,3R)-2-(2,2-difluoro-3-hydroxypropyl)-3-methyl-2,3,4,9-tetrahydro-1H-pyrido[3,4-b]indol-1-yl)-3,5-difluorophenyl)cyclohexane-1-carbonyl)piperidin-4-yl)-2-(2,6-dioxopiperidin-3-yl)-6,7-dihydropyrrolo[3,4-f]isoindole-1,3(2H,5H)-dione]
	> 0.1	COc1nc(C2CCC(C(=O)N3CCC(N4Cc5cc6c(cc5C4)C(=O)N(C4CCC(=O)NC4=O)C6=O)CC3)CC2)ccc1[C@@H]1c2[nH]c3ccccc3c2C[C@@H](C)N1CC(F)F (stereo partly drawn) [E 402, 6-(1-(4-(5-((1R,3R)-2-(2,2-difluoroethyl)-3-methyl-2,3,4,9-tetrahydro-1H-pyrido[3,4-b]indol-1-yl)-6-methoxypyridin-2-yl)cyclohexane-1-carbonyl)piperidin-4-yl)-2-(2,6-dioxopiperidin-3-yl)-6,7-dihydropyrrolo[3,4-f]isoindole-1,3(2H,5H)-dione]
	0.01 to 0.1	COc1cc([C@H]2CC[C@H](C(=O)N3CCC(N4Cc5cc6c(cc5C4)C(=O)N(C4CCC(=O)NC4=O)C6=O)CC3)CC2)ccc1[C@@H]1c2[nH]c3ccccc3c2C[C@@H](C)N1CC(F)F (stereo partly drawn) [E 403, 6-(1-((1R,4r)-4-(4-((1R,3R)-2-(2,2-difluoroethyl)-3-methyl-2,3,4,9-tetrahydro-1H-pyrido[3,4-b]indol-1-yl)-3-methoxyphenyl)cyclohexane-1-carbonyl)piperidin-4-yl)-2-(2,6-dioxopiperidin-3-yl)-6,7-dihydropyrrolo[3,4-f]isoindole-1,3(2H,5H)-dione]
	> 0.1	COc1cc([C@H]2CC[C@@H](C(=O)N3CCC(N4Cc5cc6c(cc5C4)C(=O)N(C4CCC(=O)NC4=O)C6=O)CC3)CC2)ccc1[C@@H]1c2[nH]c3ccccc3c2C[C@@H](C)N1CC(F)F (stereo partly drawn) [E 404, 6-(1-((1S,4s)-4-(4-((1R,3R)-2-(2,2-difluoroethyl)-3-methyl-2,3,4,9-tetrahydro-1H-pyrido[3,4-b]indol-1-yl)-3-methoxyphenyl)cyclohexane-1-carbonyl)piperidin-4-yl)-2-(2,6-dioxopiperidin-3-yl)-6,7-dihydropyrrolo[3,4-f]isoindole-1,3(2H,5H)-dione]
	> 0.1	COc1cc(C2CCC(C(=O)N3CCC(N4Cc5cc6c(cc5C4)C(=O)N(C4CCC(=O)NC4=O)C6=O)CC3)CC2)cnc1[C@@H]1c2[nH]c3ccccc3c2C[C@@H](C)N1CC(F)F (stereo partly drawn) [E 405, 6-(1-(4-(6-((1S,3R)-2-(2,2-difluoroethyl)-3-methyl-2,3,4,9-tetrahydro-1H-pyrido[3,4-b]indol-1-yl)-5-methoxypyridin-3-yl)cyclohexane-1-carbonyl)piperidin-4-yl)-2-(2,6-dioxopiperidin-3-yl)-6,7-dihydropyrrolo[3,4-f]isoindole-1,3(2H,5H)-dione]
	> 0.1	C[C@@H]1Cc2c([nH]c3ccccc23)[C@@H](c2ncc(C3CCC(C(=O)N4CCC(N5Cc6cc7c(cc6C5)C(=O)N(C5CCC(=O)NC5=O)C7=O)CC4)CC3)cc2F)N1CC(F)F (stereo partly drawn) [E 406, 6-(1-(4-(6-((1S,3R)-2-(2,2-difluoroethyl)-3-methyl-2,3,4,9-tetrahydro-1H-pyrido[3,4-b]indol-1-yl)-5-fluoropyridin-3-yl)cyclohexane-1-carbonyl)piperidin-4-yl)-2-(2,6-dioxopiperidin-3-yl)-6,7-dihydropyrrolo[3,4-f]isoindole-1,3(2H,5H)-dione]
	< 0.01	C[C@@H]1Cc2c(ccc3[nH]ncc23)[C@@H](c2ccc(N3CCC4(CCN(C(=O)CN5Cc6cc7c(cc6C5)C(=O)N(C5CCC(=O)NC5=O)C7=O)CC4)CC3)cn2)N1CC(F)(F)F (stereo partly drawn) [E 413, 2-(2,6-dioxopiperidin-3-yl)-6-(2-(9-(6-((6S,8R)-8-methyl-7-(2,2,2-trifluoroethyl)-6,7,8,9-tetrahydro-3H-pyrazolo[4,3-f]isoquinolin-6-yl)pyridin-3-yl)-3,9-diazaspiro[5.5]undecan-3-yl)-2-oxoethyl)-6,7-dihydropyrrolo[3,4-f]isoindole-1,3(2H,5H)-dione]

Reference: patent US20240190880A1 (THE REGENTS OF THE UNIVERSITY OF MICHIGAN, priority 2021, published 2024)
